US6794402B2, “Bicyclic cyclohexylamines and their use as NMDA receptor antagonists” (Warner-Lambert Company, priority 2000, dated 2004)

Target: T1, [3H]ifenprodil binding site, rat forebrain membranes (Rattus norvegicus, UniProt P35439+Q00960)
T1 construct: membrane fraction was prepared from frozen adult rat forebrains; tissue Zivic-Miller Laboratories, Inc; host or cells: adult rat forebrain, washed buffy coat membrane fraction
Assay: [3H]Ifenprodil binding assay
Settings: 4 nM [3H]-ifenprodil, 2 hours at room temperature
Method: All buffers and reagents used in assay incubations or to dissolve drugs were prepared using water purified through a Milli-Q reverse osmosis system (Millipore Corp, Bedford, Mass.) and treated with UV emissions. Prior to use in the assays, buffers were further filtered through a sterile Corning filtration unit (Corning Glass Works, Corning, N.Y.) containing a 0.2-micron filter. Buffer used to rinse the membranes on the assay filters was prepared with purified water, but was not refiltered and was stored no longer than 5 days. Stock solutions of the drugs (usually 10 mM) were dissolved in 20 mM HEPES-KOH buffer pH 7.4 (assay buffer) with the addition of 1 to 5 μL of glacial AcOH, if needed to keep them in solution. For eliprodil the stock solution was buffered with the addition of 10% DMSO. All subsequent dilutions from stock were made in buffer.
An extensively washed buffy coat membrane fraction was prepared from frozen adult rat forebrains (Zivic-Miller Laboratories, Inc., Zelienople, Pa.) as described previously (Coughenour L. L., Cordon, J. J., J. Pharmacol. Exp. Ther., 1997;280:584-592) and stored at −80° C. On the day of the assay, pellets were resuspended in 35 mL of assay buffer at pH 7.4 using a Polytron setting 6. After incubation at 37° C. for 30 minutes in a shaking water bath, the homogenate was centrifuged 40,000×g for 10 minutes at 4° C. The pellets were resuspended in fresh buffer and centrifuged 3 more times before final suspension for use in the assay.
[^3H]Ifenprodil Binding. Triplicate incubations were carried out in a volume of 0.5 mL in 1.3 mL polypropylene tubes (Marsh Biomedical Products Inc., Rochester, N.Y.) for 2 hours at room temperature. Incubations contained test agents, membranes (100-200 μg protein) and 4 nM[^3H]-ifenprodil in 20 mM HEPES-KOH buffer, pH 7.4 (assay buffer). Assays were started by addition of the membranes. Bound radioligand was separated by filtration under reduced pressure using a Tomtec Mach II, 96-well cell harvester (Tomtec Inc., Orange, Colo.). Filtration was through Whatman GF/B glass fiber filters (Whatman Ltd, Maidstone, England), which had been soaked for at least 15 minutes in 0.3% polyethylenimine and allowed to air dry. The filters were rinsed with 3 mL of ice cold assay buffer within 6 seconds. Air was allowed to pass through the filters for an additional 10 seconds to remove residual moisture. The filter mat was supported on a cold (−20° C.) teflon support, and filters from individual wells were separated and placed in Mini Poly-Q vials (Beckman Instruments Inc., Fullerton, Calif.) and filled with 4 mL of scintillation cocktail (Beckman Ready Protein^+). Radioactivity retained on the filter was determined by liquid scintillation spectrophotometry. Nonspecific binding was defined as the binding in the presence of 1 mM ifenprodil. Specific binding was 90%.
Data analysis. Binding curves were statistically analyzed for a best one or two site competition fit using GraphPad Prism software (GraphPad Software Inc., San Diego, Calif.). The normalized data was fit by nonweighted nonlinear regression to either [formula]
Control data was entered as 100%, and no parameters were constrained. Inhibition curves were compared by ANOVA with post test comparisons of the logIC50 using Dunnett's multiple comparisons post test or Student's nonpaired, two-tailed t-test (GraphPad InStat software).

T1 sequence (Q00960 27-1482, other chains not shown): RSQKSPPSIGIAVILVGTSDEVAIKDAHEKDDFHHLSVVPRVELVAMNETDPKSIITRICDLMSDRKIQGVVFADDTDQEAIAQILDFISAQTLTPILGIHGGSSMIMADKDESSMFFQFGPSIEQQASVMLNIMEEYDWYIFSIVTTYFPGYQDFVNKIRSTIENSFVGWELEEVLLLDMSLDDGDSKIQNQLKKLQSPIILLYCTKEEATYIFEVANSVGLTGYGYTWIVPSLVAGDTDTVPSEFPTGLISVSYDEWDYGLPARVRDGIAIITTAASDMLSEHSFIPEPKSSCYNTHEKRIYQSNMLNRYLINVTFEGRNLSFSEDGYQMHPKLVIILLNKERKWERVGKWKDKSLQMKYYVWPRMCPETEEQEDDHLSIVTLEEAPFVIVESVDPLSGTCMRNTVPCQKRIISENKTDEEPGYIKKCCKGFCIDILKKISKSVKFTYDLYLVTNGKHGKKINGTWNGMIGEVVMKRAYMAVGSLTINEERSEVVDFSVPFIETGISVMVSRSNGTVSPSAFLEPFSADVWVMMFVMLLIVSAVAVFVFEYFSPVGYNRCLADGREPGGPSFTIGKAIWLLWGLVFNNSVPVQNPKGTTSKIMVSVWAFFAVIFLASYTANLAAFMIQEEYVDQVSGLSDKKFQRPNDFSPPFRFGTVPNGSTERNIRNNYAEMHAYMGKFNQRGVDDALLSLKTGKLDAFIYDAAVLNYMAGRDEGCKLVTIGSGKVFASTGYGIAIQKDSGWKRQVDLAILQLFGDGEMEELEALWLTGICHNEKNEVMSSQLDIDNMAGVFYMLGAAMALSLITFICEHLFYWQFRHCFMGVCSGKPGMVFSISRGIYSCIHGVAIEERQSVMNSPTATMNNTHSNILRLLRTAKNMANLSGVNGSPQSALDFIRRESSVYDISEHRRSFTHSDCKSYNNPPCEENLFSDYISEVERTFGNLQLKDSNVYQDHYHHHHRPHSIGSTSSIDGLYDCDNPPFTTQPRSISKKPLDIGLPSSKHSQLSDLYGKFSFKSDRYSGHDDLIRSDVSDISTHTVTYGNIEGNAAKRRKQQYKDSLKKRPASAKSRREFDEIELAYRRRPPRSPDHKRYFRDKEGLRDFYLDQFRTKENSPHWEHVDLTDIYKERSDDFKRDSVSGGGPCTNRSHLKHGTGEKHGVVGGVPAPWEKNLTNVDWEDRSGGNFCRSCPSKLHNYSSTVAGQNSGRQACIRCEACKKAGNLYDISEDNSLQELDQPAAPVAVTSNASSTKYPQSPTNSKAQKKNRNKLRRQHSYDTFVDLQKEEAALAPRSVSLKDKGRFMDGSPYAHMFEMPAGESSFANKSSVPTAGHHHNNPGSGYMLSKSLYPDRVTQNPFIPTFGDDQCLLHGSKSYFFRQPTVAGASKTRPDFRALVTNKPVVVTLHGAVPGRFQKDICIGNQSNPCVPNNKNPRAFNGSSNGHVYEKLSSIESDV

| IC50 [nM] | SMILES |
| --- | --- |
| 12 | CN(CCCc1ccc(F)cc1)[C@H]1CC[C@H](c2ccc3[nH]c(=O)sc3c2)CC1 [Example 61b, 6-(trans-4-{[3-(4-Fluorophenyl)propyl]methylamino}cyclohexyl)-3H-benzthiazol-2-one] |
| 7 | CN(CCCc1ccc(F)cc1Cl)[C@H]1CC[C@H](c2ccc3[nH]c(=O)oc3c2)CC1 [Example 44b, 6-(trans-4-{[3-(2-Chloro-4-fluorophenyl)propyl]methylamino}cyclohexyl)-3H-benzoxazol-2-one] |
| 15 | CN(CCCc1cccc(F)c1)[C@H]1CC[C@H](c2ccc3[nH]c(=O)oc3c2)CC1 [Example 47b, 6-(trans-4-{[3-(3-Fluorophenyl)propyl]methylamino}cyclohexyl)-3H-benzoxazol-2-one] |
| 219 | O=c1[nH]c2ccc([C@H]3CC[C@H](N(CCCc4ccc(F)cc4)CC4CC4)CC3)cc2o1 [Example 30, 6-(trans-4-{Cyclopropylmethyl-[3-(4-fluorophenyl)propyl]amino}cyclohexyl)-3H-benzoxazol-2-one] |
| 351 | CC(Cc1ccccc1)CN(C)[C@H]1CC[C@H](c2ccc3[nH]c(=O)oc3c2)CC1 (stereo partly drawn) [Example 50b, 6-(trans-{4-[Methyl(2-methyl-3-phenylpropyl)amino]cyclohexyl})-3H-benzoxazol-2-one] |
| 45 | Cc1cc2[nH]c(=O)oc2cc1[C@H]1CC[C@H](N(C)CCCc2ccc(F)cc2)CC1 [Example 64, 6-(4-{[3-(4-Fluorophenyl)propyl]methyl-amino}cyclohexyl)-5-methyl-3H-benzoxazol-2-one] |
| 185 | CN(CCCc1ccc(F)cc1)[C@H]1CC[C@@H](c2ccc3[nH]c(=O)oc3c2)CC1 [Example 19, 6-(cis-4-{[3-(4-Fluorophenyl)propyl]methylamino}cyclohexyl)-3H-benzoxazol-2-one] |
| 18 | O=c1[nH]c2ccc([C@H]3CC[C@H](N(CCO)CCCc4ccc(F)cc4)CC3)cc2o1 [Example 29, 6-{trans-4-[[3-(4-Fluorophenyl)propyl]-(2-hydroxyethyl)amino]cyclohexyl}-3H-benzoxazol-2-one] |
| 68 | Cc1ccc(CCCN(C)[C@H]2CC[C@H](c3ccc4[nH]c(=O)oc4c3)CC2)c(C)c1 [Example 41b] |
| > 1000 | CC(C)CN(CCCc1ccc(F)cc1)[C@H]1CC[C@H](c2ccc3[nH]c(=O)oc3c2)CC1 [Example 33, 6-(trans-4-{[3-(4-Fluorophenyl)propyl]isobutylamino}cyclohexyl)-3H-benzoxazol-2-one] |
| 34 | CN(CCCc1ccc(Cl)cc1Cl)[C@H]1CC[C@H](c2ccc3[nH]c(=O)oc3c2)CC1 [Example 54, 6-(trans-4-{[3-(2,4-Dichlorophenyl)propyl]methylamino}cyclohexyl)-3H-benzoxazol-2-one] |
| 14 | CN(CCCc1ccc(F)cc1F)[C@H]1CC[C@H](c2ccc3[nH]c(=O)oc3c2)CC1 [Example 24b, 6-(trans-4-{[3-(2,4-Difluorophenyl)propyl]methylamino}cyclohexyl)-3H-benzoxazol-2-one] |
| 22 | CN(CCCC1CCCCC1)[C@H]1CC[C@H](c2ccc3[nH]c(=O)oc3c2)CC1 [Example 49b, 6-{trans-4-[(3-Cyclohexylpropyl)methylamino]cyclohexyl}-3H-benzoxazol-2-one] |
| 67 | COc1cc2[nH]c(=O)oc2cc1[C@H]1CC[C@H](N(C)CCCc2ccc(F)cc2)CC1 [Example 65, 6-(trans-4-{[3-(4-Fluorophenyl)propyl]methylamino}cyclohexyl)-5-methoxy-3H-benzoxazol-2-one] |
| 158 | C=CCN(CCCc1ccc(F)cc1)[C@H]1CC[C@H](c2ccc3[nH]c(=O)oc3c2)CC1 [Example 32, 6-(trans-4-{Allyl-[3-(4-fluorophenyl)propyl]amino}cyclohexyl)-3H-benzoxazol-2-one] |
| 152 | NC(=O)CN(CCCc1ccc(F)cc1)[C@H]1CC[C@H](c2ccc3[nH]c(=O)oc3c2)CC1 [Example 34, 2-{[3-(4-Fluorophenyl)propyl]-[4-(2-oxo-2,3-dihydro-benzoxazol-6-yl)-cyclohexyl]amino}acetamide] |

| IC50 [nM] | SMILES |
| --- | --- |
| > 1000 | CN(CCN(C)[C@H]1CC[C@H](c2ccc3[nH]c(=O)oc3c2)CC1)c1ccccc1 [Example 60, 6-(trans-4-{Methyl-[2-(Methylphenylamino)ethyl]amino}cyclohexyl)-3H-benzoxazol-2-one] |
| > 1000 | CCC[C@@H](CSc1ccc(F)cc1)N(CC)[C@H]1CC[C@H](c2ccc3[nH]c(=O)oc3c2)CC1 [Example 36b, (S)-6-{trans-4-[Ethyl(1-(4-fluorophenylsulfanyl)pentan-2-yl)amino]-cyclohexyl}-3H-benzoxazol-2-one] |
| 2 | CC(C)c1ccc(CCCN(C)[C@H]2CC[C@H](c3ccc4[nH]c(=O)oc4c3)CC2)cc1 [Example 53, 6-(trans-4-{[3-(4-Isopropylphenyl)propyl]methylamino}cyclohexyl)-3H-benzoxazol-2-one] |
| 5 | CN(CCCc1ccc(F)c(F)c1F)[C@H]1CC[C@H](c2ccc3[nH]c(=O)oc3c2)CC1 [Example 55, 6-(trans-4-{[3-(2,3,4-Trifluorophenyl)propyl]methylamino}cyclohexyl)-3H-benzoxazol-2-one] |
| 9 | CN(CCCc1ccccc1F)[C@H]1CC[C@H](c2ccc3[nH]c(=O)oc3c2)CC1 [Example 46b, 6-(trans-4-{[3-(2-Fluorophenyl)propyl]methylamino}cyclohexyl)-3H-benzoxazol-2-one] |
| 21 | O=c1[nH]c2ccc([C@H]3CC[C@@H](NCCSc4ccccc4)CC3)cc2o1 [Example 5b, 6-[cis-4-(2-Phenylsulfanylethylamino)cyclohexyl]-3H-benzoxazol-2-one] |
| 550 | CN(CC#Cc1ccccc1)[C@H]1CC[C@H](c2ccc3[nH]c(=O)oc3c2)CC1 [Example 51b, 6-(trans-{4-[Methyl(3-phenyl-prop-2-ynyl)amino]cyclohexyl})-3H-benzoxazol-2-one] |
| 71 | CC(C)Cc1ccc(CCCN(C)[C@H]2CC[C@H](c3ccc4[nH]c(=O)oc4c3)CC2)cc1 [Example 56, 6-(trans-4-{[3-(4-Isobutylphenyl)propyl]methylamino}cyclohexyl)-3H-benzoxazol-2-one] |
| 6 | CN(CCCc1c(F)cc(F)cc1F)[C@H]1CC[C@H](c2ccc3[nH]c(=O)oc3c2)CC1 [Example 57, 6-(trans-4-{[3-(2,4,6-Trifluorophenyl)propyl]methylamino}cyclohexyl)-3H-benzoxazol-2-one] |
| 980 | O=C(NCCNC1CCC(c2ccc3[nH]c(=O)oc3c2)CC1)c1ccccc1 (mixture of isomers) [Example 42b, N-{2-[4-(2-Oxo-2,3-dihydrobenzoxazol-6-yl)cyclohexylamino]ethyl}-benzamide] |
| 7 | CN(CCCc1ccc(Cl)cc1F)[C@H]1CC[C@H](c2ccc3[nH]c(=O)oc3c2)CC1 [Example 45b, 6-(trans-4-{[3-(4-Chloro-2-fluorophenyl)propyl]methylamino}cyclohexyl)-3H-benzoxazol-2-one] |
| 465 | O=c1[nH]c2ccc([C@H]3CC[C@H](N(CCCc4ccc(F)cc4)Cc4ccoc4)CC3)cc2o1 [Example 31, 6-(trans-4-{[3-(4-Fluorophenyl)propyl]furan-3-ylmethylamino}cyclohexyl)-3H-benzoxazol-2-one] |
| 316 | CN(CCCc1nccs1)[C@H]1CC[C@H](c2ccc3[nH]c(=O)oc3c2)CC1 [Example 59, 6-{trans-4-[Methyl(3-thiazol-2-ylpropyl)amino]cyclohexyl}-3H-benzoxazol-2-one] |
| 3 | CN(CCCc1ccsc1)[C@H]1CC[C@H](c2ccc3[nH]c(=O)oc3c2)CC1 [Example 52b, 6-[trans-4-{[3-(3-Thiophen-3-yl)propyl]methylamino}cyclohexyl)-3H-benzoxazol-2-one] |
| 132 | CCN([C@H]1CC[C@H](c2ccc3[nH]c(=O)oc3c2)CC1)[C@H](C)CCc1ccccc1 [Example 27, 6-(trans-4-{Ethyl-[(R)-1-methyl-3-phenylpropyl]amino}cyclohexyl)-3H-benzoxazol-2-one] |
